Legend:
[1] = test system: cutaneous micro-relief; assay: Smoothing effect on cutaneous micro-relief of forearms in volunteers (profilometer); type: in vivo, human; conditions: active principle 4% or retinol 0.15% in emulsion, bi-daily for 28 days, against placebo
Method: The active principle is formulated at 4% in emulsion, and retinol is formulated at 0.15% in an emulsion. The 2 formulations are tested on 2 groups of volunteers, against a placebo. The tests are carried out and the influence of the active principle or of retinol on the appearance of cutaneous micro-relief, after bi-daily application for 28 days. The analyses are carried out by observation of prints of the cutaneous micro-relief with the help of a profilometer associated with an image analyzer. The zones in question in this study are cutaneous zones of the forearms. The observed parameter is the mean rugosity of the micro-contour.

[2] = test system: collagen I; assay: Synthesis of collagen I in human fibroblasts by ELISA dosage; type: cell-based; conditions: normal human fibroblasts; retinol at 10^-5 M
Method: The study is conducted on human fibroblasts by ELISA dosage. The fibroblasts are incubated in the presence or not of the active principle, of the fractions or of retinol at 10^−5 M. The results are shown in FIG. 2. Tests have been carried out on normal human fibroblasts by ELISA dosage. The fibroblasts were treated with retinol at 10^−5 M or with the active principle at 0.1%, 0.25% and 0.5%.

[3] = test system: skin; assay: Irritating skin reactions in volunteers of the in vivo studies; parameters: species or system human; conditions: topical emulsion (active principle 4%, retinol 0.15%), bi-daily for 28 days
Method: The active principle is formulated at 4% in an emulsion. Retinol is formulated at 0.15% in an emulsion.
The 2 formulae are tests and 2 groups of volunteers, against a placebo.
The tests have shown the influence of the active principle or of retinol on the appearance of crows-feet wrinkles, after bi-daily application for 28 days.
The active principle is formulated at 4% in emulsion, and retinol is formulated at 0.15% in an emulsion.
The 2 formulations are tested on 2 groups of volunteers, against a placebo.
The tests are carried out and the influence of the active principle or of retinol on the appearance of cutaneous micro-relief, after bi-daily application for 28 days.

Structure (SMILES): CC1=C(/C=C/C(C)=C/C=C/C(C)=C/CO)C(C)(C)CCC1 [retinol]
- smoothing effect on the micro-contour (mean rugosity) relative to the comparison [1]: 8%
- increase of the synthesis of collagen I [2]: 171%
- irritating skin reactions [3]: reactions of the irritating skin type

Reference: patent publication US20080249064A1, “Activities of an active principle obtained from powdered alfalfa seeds (Medicago sativa), active principle used and process of obtaining the same” (SOCIETE INDUSTRIELLE LIMOUSINE D'APPLICATION BIOLOGIQUE …, priority 2004, published 2008)
